# According to patent US6984633B2, “Method to treat cardiofibrosis with a combination therapy of an angiotensin II antagonist and epoxymexrenone” (G.D Searle & Co., priority 1995, dated 2006):
# System: rabbit aortic rings
# Experiment: Assay B: In vitro vascular smooth muscle response for AII, antagonist activity in aortic rings
# Type: cell-based
# Conditions: not given
# Description: Assay B: In Vitro Vascular Smooth Muscle-Response for AII
# The compounds of the invention were tested for antagonist activity in rabbit aortic rings. Male New Zealand white rabbits (2-2.5 kg) were sacrificed using an overdose of pentobarbital and exsanguinated via the carotid arteries. The thoracic aorta was removed, cleaned of adherent fat and connective tissue and then cut into 3-mm ring segments. The endothelium was removed from the rings by gently sliding a rolled-up piece of filter paper into the vessel lumen. The rings were then mounted in a water-jacketed tissue bath, maintained at 37° C., between moveable and fixed ends of a stainless steel wire with the moveable end attached to an FT03 Grass transducer coupled to a Model 7D Grass Polygraph for recording isometric force responses. The bath was filled with 20 ml of oxygenated (95% oxygen/5% carbon dioxide) Krebs solution of the following composition (mM); 130 NaCl, 15 NaHCO3, […], 1.2 NaH2PO4, 1.2 MgSO4, 2.5 CaCl2, and 11.4 glucose. The preparations were equilibrated for one hour before approximately one gram of passive tension was placed on the rings. Angiotensin II concentration-response curves were then recorded (3×10^−10 to 1×10^−5 M). Each concentration of AII was allowed to elicit its maximal contraction, and then AII was washed out repeatedly for 30 minutes before rechallenging with a higher concentration of AII. Aorta rings were exposed to the test antagonist at 10^−5 M for 5 minutes before challenging with AII. Adjacent segments of the same aorta ring were used for all concentration-response curves in the presence of absence of the test antagonist. The effectiveness of the test compound was expressed in terms of pA2 values and were calculated according to H. O. Schild [Br. J. Pharmacol. Chemother., 2, 189-206 (1947)]. The pA2 value is the concentration of the antagonist which increases the EC50 value for AII by a factor of two. Each test antagonist was evaluated in aorta rings from two rabbits.
row,SMILES,"Assay B pA2 column, result given as symbol"
1,CCCCc1nc(CCCN)n(Cc2ccc(-c3ccccc3-c3nnn[nH]3)cc2)n1 [Compound 71],* (Antagonist Activity not observed up to 10 μM of test compound.)

# Same assay, conditions: Oryctolagus cuniculus, two determinations separated by /, read-out: Assay B pA2 (converted)
row,SMILES,Kb [nM]
1,CCCCc1nn(CC(C)c2cc(OC)ccc2OC)c(=O)n1Cc1ccc(-c2ccccc2-c2nn[nH]n2)cc1 (stereo not shown) [Compound 98],7.94

# Same assay, conditions: two determinations separated by /
row,SMILES,Assay B pA2
1,CCCCc1nc(CCCNC(=O)OC(C)(C)C)n(Cc2ccc(-c3ccccc3-c3nnn[nH]3)cc2)n1 [Compound 67],5.78
2,CCCCc1nc(CCCN)nn1Cc1ccc(-c2ccccc2-c2nnn[nH]2)cc1 [Compound 72],6.10
3,CCCCc1nc(CC2CCCCC2)n(Cc2ccc(-c3ccccc3-c3nnn[nH]3)cc2)n1 [Compound 73],7.46
4,CCCCc1nc(CC2CCCCC2)nn1Cc1ccc(-c2ccccc2-c2nnn[nH]2)cc1 [Compound 74],8.39
5,CCCCc1nc(CC)n(Cc2ccc(-c3ccccc3C(=O)O)cc2)n1 [Compound 76],5.78
6,CCCCc1nc2c(OC(=O)C(C)C)nnc(O)c2n1Cc1ccc(-c2ccccc2-c2nnn[nH]2)cc1 [Compound 119],9.00
7,CCCCc1nc2c(OC(=O)C3CCCCC3)nnc(O)c2n1Cc1ccc(-c2ccccc2-c2nnn[nH]2)cc1 [Compound 120],8.77
8,CCCCc1nc2c(OC(=O)Cc3ccccc3)nnc(O)c2n1Cc1ccc(-c2ccccc2-c2nnn[nH]2)cc1 [Compound 124],9.12
9,CCCCc1nc(Cc2ccc(-c3ccccc3C(=O)O)cc2)n(CCCC)n1 [Compound 126],7.05
10,CCCCc1nc(Cc2ccc(-c3ccccc3-c3nnn[nH]3)cc2)n(CCCC)n1 [Compound 128],8.40
11,CCCCn1nc(C(F)(F)CCC)nc1Cc1ccc(-c2ccccc2-c2nnn[nH]2)cc1 [Compound 130],7.94
12,CCCCc1nc(Cc2ccc(-c3ccccc3-c3nnn[nH]3)nc2)n(CCCC)n1 [Compound 150],7.80
13,CCCCn1nc(CCc2ccccc2)nc1Cc1ccc(-c2ccccc2-c2nnn[nH]2)nc1 [Compound 151],7.97
14,CCCCn1nc(CCC)nc1Cc1ccc(-c2ccccc2-c2nnn[nH]2)nc1 [Compound 152],7.23
15,CCCCn1nc(/C=C/c2cccs2)nc1Cc1ccc(-c2ccccc2-c2nnn[nH]2)nc1 [Compound 154],8.38
16,CCCCn1nc(-c2ccccc2Cl)nc1Cc1ccc(-c2ccccc2-c2nnn[nH]2)nc1 [Compound 158],8.14
17,CCCCn1nc(C(=O)CCC)nc1Cc1ccc(-c2ccccc2-c2nnn[nH]2)nc1 [Compound 160],7.71

row,SMILES,Assay B pA2
1,CCCn1nc(C(C)(F)F)nc1Cc1ccc(-c2ccccc2-c2nnn[nH]2)nc1 [Compound 165],7.18
2,CCCCn1nc(C(C)(F)F)nc1Cc1ccc(-c2ccccc2-c2nnn[nH]2)nc1 [Compound 166],7.74
3,CCCn1nc(C(F)(F)CC)nc1Cc1ccc(-c2ccccc2-c2nnn[nH]2)nc1 [Compound 167],7.11
4,CCCCn1nc(C(F)(F)CC)nc1Cc1ccc(-c2ccccc2-c2nnn[nH]2)nc1 [Compound 168],7.58
5,CCCn1nc(C(F)(F)CCC)nc1Cc1ccc(-c2ccccc2-c2nnn[nH]2)nc1 [Compound 169],7.58
6,CCCCn1nc(C(=O)NC)nc1Cc1ccc(-c2ccccc2-c2nnn[nH]2)nc1 [Compound 172],7.04
7,CCCn1nc(C(OC)OC)nc1Cc1ccc(-c2ccccc2-c2nnn[nH]2)nc1 [Compound 174],7.02
8,CCCCn1nc(C(OCC)OCC)nc1Cc1ccc(-c2ccccc2-c2nnn[nH]2)nc1 [Compound 176],7.55
9,CCCCn1nc(C(OC(C)C)OC(C)C)nc1Cc1ccc(-c2ccccc2-c2nnn[nH]2)nc1 [Compound 178],7.47
10,CCCCc1nc(CCCC)n(Cc2ccc(-c3ccccc3-c3nnn[nH]3)cn2)n1 [Compound 239],8.01
11,CCCc1nc(CCC)n(Cc2ccc(-c3ccccc3-c3nnn[nH]3)nc2)n1 [Compound 246],7.59
12,CCCCc1nc(C(F)(F)CCC)nn1Cc1ccc(-c2ccccc2-c2nnn[nH]2)nc1 [Compound 247],8.41
13,CCCCc1nc(C(F)(F)CCC)n(Cc2ccc(-c3ccccc3-c3nnn[nH]3)nc2)n1 [Compound 248],7.50
14,CCCCc1nc(C(=O)N(C)C(C)(C)C)nn1Cc1ccc(-c2ccccc2-c2nnn[nH]2)nc1 [Compound 255],7.46
15,CCCCc1nc(C(=O)NC)nn1Cc1ccc(-c2ccccc2-c2nnn[nH]2)nc1 [Compound 257],6.68
16,CCCCc1nc(C)nn1Cc1ccc(-c2ccccc2C(=O)O)cc1 [Compound 280],6.35

# Molecular target: angiotensin II AT1 receptor
# Experiment: Assay A: Angiotensin II binding activity, 125I-AII displacement in rat uterine membrane preparation
# Conditions: not given
# Description: Assay A: Antiotensin II Binding Activity
# Compounds of the invention were tested for ability to bind to the smooth muscle angiotensin II receptor using a rat uterine membrane preparation. […] The reaction was initiated by the addition of membrane protein and the mixture was incubated at 25° C. for 60 min. The incubation was terminated with ice-cold 50 mM Tris-HCl (pH 7.5) and the mixture was filtered to separate membrane-bound labelled peptide from the free ligand. The incubation tube and filter were washed with ice-cold buffer. Filters were assayed for radioactivity in a Micromedic gamma counter. Nonspecific binding was defined as binding in the presence of 10 μM of unlabelled AII. Specific binding was calculated as total binding minus nonspecific binding. […] Binding data were analyzed by a nonlinear least-squares curve fitting program.
row,SMILES,IC50 [nM]
1,CCCCc1nn(CC(C)c2cc(OC)ccc2OC)c(=O)n1Cc1ccc(-c2ccccc2-c2nn[nH]n2)cc1 (stereo not shown) [Compound 98],22
2,CCCCc1nc2c(OC(C)=O)nnc(OC(C)=O)c2n1Cc1ccc(-c2ccccc2-c2nnn[nH]2)cc1 [Compound 125],40
3,CCCn1nc(C(F)F)nc1Cc1ccc(-c2ccccc2-c2nnn[nH]2)nc1 [Compound 162],380
4,CCCCn1nc(C(F)F)nc1Cc1ccc(-c2ccccc2-c2nnn[nH]2)nc1 [Compound 163],420

# System: pressor response to AII
# Experiment: Assay C: In vivo intragastric pressor assay response for AII antagonists
# Parameters: species or system rat
# Conditions: dose not given, intraduodenally
row,SMILES,Assay C Duration [min]
1,CCCCc1nn(CCCC)c(=O)n1Cc1ccc(-c2ccccc2C(=O)O)cc1 [Compound 78],60 to 100
2,CCCCc1nc(CCCC)n(Cc2ccc(-n3c(Cl)cc(Cl)c3-c3nnn[nH]3)cc2)n1 [Compound 143],75

# System: myocardial fibrosis
# Experiment: not given
# Conditions: animal models; cited from earlier work
row,SMILES,prevention of myocardial fibrosis
1,CC(=O)S[C@@H]1CC2=CC(=O)CC[C@]2(C)[C@H]2CC[C@@]3(C)[C@@H](CC[C@@]34CCC(=O)O4)[C@H]12 [spironolactone],prevents myocardial fibrosis in animal models

# Same assay, conditions: animal models; listed as Spironolactone; cited from earlier work
row,SMILES,prevention of myocardial fibrosis
1,CC(=O)S[C@@H]1CC2=CC(=O)CC[C@]2(C)[C@H]2CC[C@@]3(C)[C@@H](CC[C@@]34CCC(=O)O4)[C@H]12 [spironolactone],prevent fibrosis in animal models irrespective of the development of left ventricular hypertrophy and the presence of hypertension

# System: pressor response to AII
# Experiment: Assay C: In vivo intragastric pressor assay response for AII antagonists
# Parameters: species or system rat
# Conditions: dose not given, intragastrically
# Description: Assay C: In Vivo Intragastric Pressor Assay Response for All Antagonists
# Male Sprague-Dawley rats weighing 225-300 grams were anesthetized with methohexital (30 mg/kg, i.p.) and catheters were implanted into the femoral artery and vein. The catheters were tunneled subcutaneously to exit dorsally, posterior to the head and between the scapulae. The catheters were filled with heparin (1000 units/ml of saline). The rats were returned to their cage and allowed regular rate chow and water ad libitum. After full recovery from surgery (3-4 days), rats were placed in Lucite holders and the arterial line was connected to a pressure transducer. Arterial pressure was recorded on a Gould polygraph (mmHg). Angiotensin II was administered as a 30 ng/kg bolus via the venous catheter delivered in a 50 μl volume with a 0.1 ml saline flush. The pressor response in mm Hg was measured by the difference from pre-injection arterial pressure to the maximum pressure achieved. The AII injection was repeated every 10 minutes until three consecutive injections yielded responses within 4 mmHg of each other. These three responses were then averaged and represented the control response to AII. The test compound was suspended in 0.5% methylcellulose in water and was administered by gavage. The volume administered was 2 ml/kg body weight. The standard dose was 3 mg/kg. Angiotensin II bolus injections were given at 30, 45, 60, 75, 120, 150, and 180 minutes after gavage. The pressor response to AII was measured at each time point. The rats were then returned to their cage for future testing. A minimum of 3 days was allowed between tests. Percent inhibition was calculated for each time point following gavage by the following formula: [(Control Response—Response at time point)/Control Response]×100.
row,SMILES,Assay C Duration [min]
1,CCCCc1nn(CCCc2ccccc2)c(=O)n1Cc1ccc(-c2ccccc2-c2nn[nH]n2)cc1 [Compound 81],180
2,CCCCc1nn(CC(=O)c2ccccc2)c(=O)n1Cc1ccc(-c2ccccc2-c2nn[nH]n2)cc1 [Compound 82],180
3,CCCCc1nn(CC(O)c2ccccc2)c(=O)n1Cc1ccc(-c2ccccc2-c2nn[nH]n2)cc1 (stereo not shown) [Compound 83],>180
4,CCCCc1nn(CC(=O)OC(C)(C)C)c(=O)n1Cc1ccc(-c2ccccc2-c2nn[nH]n2)cc1 [Compound 84],30
5,CCCCc1nn(CC(OCC(=O)O)c2ccccc2)c(=O)n1Cc1ccc(-c2ccccc2-c2nn[nH]n2)cc1 (stereo not shown) [Compound 91],>180
6,CCCCc1cn(CCc2ccccc2)c(=O)n1Cc1ccc(-c2ccccc2-c2nnn[nH]2)cc1 [Compound 133],90 to 120
